# From patent US8431541B2, “Alpha-amylase inhibitors: the montbretins and uses thereof” (The University of British Columbia, priority 2007, dated 2013)
# Experiments:
# [1] = test system: male Wistar rats; experiment: Taste aversion study, drinking water; assay type: in vivo, rat; details: approximately 10 mg/kg/day in drinking water
# Experimental: A study was done to determine if there is aversion by animals to the taste of montbretin A dissolved in drinking water. Six (6) male Wistar rats weighing between 500-650 g were housed 2 rats per cage. Three hundred grams (300 g) of standard rat chow (Purnia) was placed in the food hopper of each cage daily. Food consumption per cage per day was determined every 24 hours for 3 days. A fluid volume of 900 ml of drinking water was placed on each cage daily. Fluid consumption per cage per day was determined every 24 hours for 3 days. Body weights of each animal were measured every 24 hours.
# Based on the preliminary drinking water values obtained, montbretin A was dissolved in the drinking water so as to deliver a dose of 10 mg/kg/day. Body weight and food consumption measurements were done as described above. A fluid volume of 250 ml of montbretin A solution at a concentration of 0.09 mg/ml was placed on each cage daily. Fluid consumption was measured every 24 hours for 3 days.
# The food and fluid consumption and body weights were analyzed. The dose of montbretin A was determined based on weight and consumption values. There was no effect of montbretin A dissolved in the drinking water on body weight, fluid intake or food intake and a dose of approximately 10 mg/kg was achieved.
# [2] = biological target: T1, α-mannosidase (Jack Bean) (Canavalia ensiformis, UniProt C0HJB3); experiment: Glycosidase specificity: α-mannosidase; assay type: biochemical; details: at 0.1 μM Montbretin A; read-out: RA (%), Residual Enzyme Activity
# T1 sequence (C0HJB3 1-981): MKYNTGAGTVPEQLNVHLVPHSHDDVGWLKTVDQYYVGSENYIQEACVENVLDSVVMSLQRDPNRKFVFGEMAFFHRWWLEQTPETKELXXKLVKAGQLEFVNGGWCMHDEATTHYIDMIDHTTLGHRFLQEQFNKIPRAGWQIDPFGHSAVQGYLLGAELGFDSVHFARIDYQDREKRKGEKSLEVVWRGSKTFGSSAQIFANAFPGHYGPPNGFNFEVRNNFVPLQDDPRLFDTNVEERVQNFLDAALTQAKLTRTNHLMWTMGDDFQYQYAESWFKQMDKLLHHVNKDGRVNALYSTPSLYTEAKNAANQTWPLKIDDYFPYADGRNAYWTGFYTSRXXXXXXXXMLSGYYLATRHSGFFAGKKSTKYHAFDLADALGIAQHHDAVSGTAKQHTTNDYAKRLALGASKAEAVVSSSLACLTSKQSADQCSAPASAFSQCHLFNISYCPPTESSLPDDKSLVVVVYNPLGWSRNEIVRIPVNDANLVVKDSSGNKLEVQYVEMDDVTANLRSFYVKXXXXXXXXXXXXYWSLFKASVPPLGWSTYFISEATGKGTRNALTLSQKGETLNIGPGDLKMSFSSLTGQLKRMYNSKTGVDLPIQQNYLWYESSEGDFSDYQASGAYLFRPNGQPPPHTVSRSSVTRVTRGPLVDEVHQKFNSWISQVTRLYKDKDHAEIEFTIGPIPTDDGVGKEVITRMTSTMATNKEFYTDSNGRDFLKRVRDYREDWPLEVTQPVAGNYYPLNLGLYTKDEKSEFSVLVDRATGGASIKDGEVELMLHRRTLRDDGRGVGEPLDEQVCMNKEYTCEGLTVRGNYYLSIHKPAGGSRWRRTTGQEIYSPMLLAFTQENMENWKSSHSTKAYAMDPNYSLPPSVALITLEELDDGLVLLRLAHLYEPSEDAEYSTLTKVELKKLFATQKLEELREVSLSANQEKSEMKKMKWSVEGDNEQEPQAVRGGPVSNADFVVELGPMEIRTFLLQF
# [3] = biological target: T2, human pancreatic α-amylase (HPA) (Homo sapiens, UniProt P04746); experiment: Kinetic analysis of HPA inhibition; assay type: biochemical
# T2 sequence (P04746 16-511): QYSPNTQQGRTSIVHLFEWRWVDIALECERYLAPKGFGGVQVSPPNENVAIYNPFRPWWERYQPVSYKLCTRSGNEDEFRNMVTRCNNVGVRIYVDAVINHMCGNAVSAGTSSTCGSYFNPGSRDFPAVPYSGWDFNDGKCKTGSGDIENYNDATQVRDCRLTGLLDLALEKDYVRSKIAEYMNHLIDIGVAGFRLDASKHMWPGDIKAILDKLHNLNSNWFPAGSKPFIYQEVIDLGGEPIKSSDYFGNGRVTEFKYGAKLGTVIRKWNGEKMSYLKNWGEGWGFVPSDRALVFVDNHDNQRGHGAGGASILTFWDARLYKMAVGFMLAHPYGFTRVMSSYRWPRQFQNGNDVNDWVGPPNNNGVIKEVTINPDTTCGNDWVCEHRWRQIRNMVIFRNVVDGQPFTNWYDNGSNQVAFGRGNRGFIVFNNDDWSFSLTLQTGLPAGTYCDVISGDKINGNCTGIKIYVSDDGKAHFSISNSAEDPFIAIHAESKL
structure (smiles),measurement,setting,value
"CC1O[C@@H](O[C@@H]2CO[C@@H](Oc3c(O)cc(-c4oc5cc(O)cc(O)c5c(=O)c4O[C@@H]4OC(C)[C@H](O)[C@H](O)C4O[C@@H]4OC(COC(=O)/C=C/c5ccc(O)c(O)c5)[C@@H](O)[C@@H](O)C4O[C@@H]4OC(CO)[C@@H](O)[C@@H](O)C4O)cc3O)C(O)[C@@H]2O)C(O)[C@@H](O)[C@H]1O (stereo partly drawn) [Montbretin A, montbretin A]",effect on body weight,[1]; 3 days,no effect
same,effect on fluid intake,[1]; 3 days,no effect
same,effect on food intake,[1]; 3 days,no effect
same,side effects,[1]; duration of the trial,no overt indications of side effects
same,remaining activity at 0.1 µM,[2],100%
same,mode of inhibition of HPA,[3]; double reciprocal plot,competitive
same,effect of calcium on HPA inhibition,[3]; presence of 1 mM calcium chloride,no change in inhibition
same,effect of DTT on HPA inhibition,[3]; presence vs absence of 5 mM dithiothreitol,No effect
same,Ki,"[3]; varied substrate and inhibitor concentrations, GraFit",8.1 ± 0.5 nM
